These results are taken from patent US20130274235A1, “TREATMENT OF MOTOR NEURON DISEASE” (THE GENERAL HOSPITAL CORPORATION, priority 2010, published 2013).

The subject of data set [1] is spinal motor neurons in primary culture. The data set is described as follows: Neuroprotection against glutamate-induced toxicity in primary spinal cord cultures. In kind it is cell-based, rat. Particulars: 10-100 ng/ml, 2-4 h pretreatment; 20 μM glutamate + 100 μM PDC. On the procedure:
Time-pregnant Sprague Dawley wild-type rats were anesthetized, decapitated and E15.5 embryos collected, decapitated and spinal cords isolated in Hanks balanced salt solution (HBSS, Invitrogen). Dissections of spinal cords were done carefully to avoid the inclusion of somites or other external tissues. Cells were dissociated by gentle trituration and incubation with papain (Worthington Biochemical Corporation). Cells were cultured for 6 days in Neurobasal media (Invitrogen) containing 10% fetal bovine serum (FBS, Fisher scientific), 1×B27 supplement (Invitrogen), 500 μM glutamine (Invitrogen), […] mercaptoethanol (Invitrogen), Penicillin-Streptomycin (Invitrogen) or in DMEM/F12 (Invitrogen) containing 5% FBS, 1×N2 supplement A (Stem Cell Technologies), glucose (0.36%, Sigma), bovine serum albumin (0.25%, Invitrogen), Penicillin-Streptomycin (Invitrogen). Either culture media could maintain spinal cord cultures containing motor neurons. […]
For immunofluorescent staining, coverslips/sections were rinsed with phosphate buffered saline and incubated with blocking buffer (see above) for 1 h. […] The effect of glutamate, IGF-II and/or guanine deaminase on motor neuron survival was carefully evaluated, as was the co-localization of motor neuron markers.

The next data set concerns IGF-II mRNA. Nature of the data set: IGF-II expression assay, qPCR detection, in primary spinal cord cultures. In kind it is cell-based, mice. On the procedure:
Quantitative PCR utilizing SYBR green I (Molecular Probes, Eugene, Oreg.) or specific Taqman probes was used to confirm differential gene expression. RNA extracted from 100-200 LCMed motor neurons were reverse transcribed using Superscript III (Invitrogen). 2 μl of diluted cDNA was amplified (DNA Engine Opticon real-time PCR machine, Bio-Rad), in […] reactions containing 900 nM primer and 250 nM probe in Taqman Universal Master Mix (Applied Biosystems). Reactions were run in duplicate and each gene analyzed in at least three different animals. Reaction parameters were as follows: 50° C. for 2 min, 95° C. for 10 min, and 40 cycles of 95° C. for 15 s and 60° C. for 1 min. Controls lacking template and/or Superscript were included. The absolute copy number for each gene was quantified using a standard curve from human GAPDH plasmid and amplified products were normalized against rat GAPDH expression. Primers and probes (Integrated DNA technologies) were as follows: rat GAPDH: Forward primer: […]
Two libraries of FDA-approved drugs (NINDS and Harvard LDDN) were screened for their ability to up-regulate IGF-II expression. Candidate compounds were screened in an IGF-II expression assay using a qPCR detection methodology in primary spinal cord cultures or using a luciferase reporter assay. In the initial screening, therapeutic candidates were identified as those that increased IGF-II expression by at least 2-fold. […]

Data set [2] deals with motor neurons in primary spinal cord cultures. Nature of the data set: Low-level progressive glutamate excitotoxicity in primary spinal cord cultures. In kind it is cell-based, mice. Particulars: drug pretreatment, glutamate/PDC treatments 48 hours apart, FIG. 8. How it is done:
Primary spinal cord cultures from E12 pregnant mice were pre-treated for 72 hours with 1 μM, 2.5 μM, 5 μM, or 10 μM of a selected drug according to prior optimized dosing regimen. Drugs tested were identified during screening of qPCR. Subsequently, experimental cultures were grown in the presence of 0, 1.0 μM, 2.5 μM, or 10 μM drug for 24 hours prior to exposure to two glutamate (20 μM)/PDC (1 μM) or glutamate (50 μM)/PDC (10 μM) treatments 48 hours apart. Control samples (no glutamate/PDC treatment) were cultured for 24 hours in the presence of 10 μM drug administered 3 times to determine toxicity of treatment. All cultures were then fixed and stained with ChAT, Hoechst stain of the nuclei, and Islet1/2 antibody labels for the motorneuron columns. Results were analyzed using an In Cell Analyzer (GE Healthcare). Results were presented as percent of vehicle (DMSO) treated control cells.

The subject of data set [3] is IGF-II P4 promoter. Nature of the data set: Luciferase reporter assay, P4 IGF-II promoter cell line (SK-N-FI cells). In kind it is cell-based. The conditions noted are these: FIG. 9, HCl. On the procedure:
pGL4.17[luc/Neo] reporter constructs were transfected to contain the P4 IGF-II promoter using the Blue Heron Bio GeneMaker. After transfection of reporter constructs into SK-N-FI cells+IGF-II using G418 selection pressure for generation of stable cell-line, clonal expansion, IGF-II up-regulating drugs such as glucocorticoids were added, and luminescence was measured. The cell lines were optimized for luciferase intensity, background, and responsiveness. The transfected cells were then used to screen the drug libraries described above
The P4 promoter cell line was cultured as described above. Eight drugs that were positive in the small library screen were tested as described above, and luciferase luminescence was measured. Of the eight tested drugs, four acted on the P4 IGF-II promoter. The best-performing non-glucocorticoid candidate that was tested was Vardenafil HCl. […] Vardenafil HCl is a phosphodiesterase type 5 (PDE5) inhibitor with a structure as shown in FIG. 11 and is known to increase cellular cGMP. Vardenafil has been previously FDA approved for treatment of erectile dysfunction and is also clinically used for treating pulmonary hypertension, and is in preclinical studies as a treatment of cystic fibrosis.

The test system of the next data set is IGF-II protein. The data set is described as follows: IGF-II protein expression in primary spinal cord cultures, quantitated by ELISA. In kind it is cell-based, mice. The text has this: Further results of the library screening identified the following therapeutic agents as having a significant inducing effect on IGF-II expression in primary spinal cord cultures and are useful for treating motor neuron disease. Protein expression was quantitated by ELISA.

For data set [4], the system named is IGF-II P4 promoter. Particulars: cited from earlier work.

Values joined by “and” are separate entries in the source; they are usually repeats but may differ in a detail not shown here. Equal values may be shown once. “Also recorded” adds a separate entry of the source. Where a name gives a salt, the structure may show the parent alone. Read-outs that look alike come from different tables or passages of the source.

For the compound “IGF-II: recombinant IGF-II (R&D Systems), added exogenously to primary spinal cord cultures”, in data set [1], the “protection of motor neurons from glutamate-induced toxicity” value is “blocked glutamate-induced motor neuron loss completely; also recorded: protected motor neurons against the toxicity; also recorded: protected motor neurons from glutamate-induced toxicity”.

As for `N=C(N)N/N=C/c1c(Cl)cccc1Cl` [Guanabenz acetate], in the data set on IGF-II mRNA, the “Fold Increase in IGF-II mRNA Expression” value is recorded as 3.8 fold. In the data set with IGF-II mRNA (antihypertensive agents, FIGS. 5 and 6), the “induction of IGF-II expression (in words)” value is listed as “most active”. The “protection of motor neurons against glutamate/PDC excitotoxic insult” value in data set [2] is on record as “provided a level of protection”.

Regarding `CCCc1nc(C)c2c(=O)[nH]c(-c3cc(S(=O)(=O)N4CCN(CC)CC4)ccc3OCC)nn12` [Vardenafil HCl], the “Fold Increase in IGF-II mRNA Expression” value in the data set on IGF-II mRNA (HCl) is 6.5 fold and 6.5 ± 0.2 fold. Also, the “luciferase luminescence, activation of P4 IGF-II promoter” value with IGF-II P4 promoter [3] was “roughly equal to those of Hydrocortisone at three concentrations; also recorded: activation, as shown in FIG. 9, at a level similar to the known P4 activator hydrocortisone”. In addition, in the data set with IGF-II protein, the “Fold Increase in IGF-II Protein Expression” value is listed as 1.6 fold and the “IGF-II Protein Expression (pg/ml in media)” value is reported as “(245 ± 27) pg/ml”. Further, in data set [2] (HCl), the “protection of motor neurons against glutamate/PDC excitotoxic insult” value was “provided a level of protection; also recorded: rescues primary motor neurons from low-level progressive glutamate toxicity”.

In the case of `CC(C(=O)O)c1ccc(-c2ccccc2)c(F)c1` (centres unmarked) [Flurbiprofen], the “Fold Increase in IGF-II mRNA Expression” value with IGF-II mRNA is 2.5 fold and 2.5 ± 0.5 fold. Also, the “induction of IGF-II expression (fold induction)” value in the data set on IGF-II mRNA (NSAID series, FIGS. 3 and 4) came out at 2.5±0.5 fold. Also, in the data set on IGF-II protein, the “Fold Increase in IGF-II Protein Expression” value is listed as 1.2 fold and the “IGF-II Protein Expression (pg/ml in media)” value is reported as “(121 ± 27) pg/ml”.

For `C[C@]12CCC(=O)C=C1CC[C@@H]1[C@@H]2[C@@H](O)C[C@@]2(C)[C@H]1CC[C@]2(O)C(=O)CO` [hydrocortisone], the “P4 IGF-II promoter activation (known)” value in the data set on IGF-II P4 promoter [4] is “known P4 activator”.
